Legend:
Assay type in all cases: cell-based
[1] = tested on: primary umbilical cord-derived mesenchymal stem cells; assay: Stem cell proliferation (CCK, absorbance 450 nm) after pretreatment; settings: 24 h culture, CCK 4 h
Experimental: (§1) In a culture medium [high glucose DMEM (Gibco, Cat no. 11995-065); 10% fetal bovine serum (HyClone), 1% MEM non-essential amino acids solution (100×) (Gibco, Cat no. 11140-050)] containing 20 nM of exendin-4, primary umbilical cord-derived mesenchymal stem cells (ATCC No. PCS-500-010; Lot No. 63822428) were cultured for one week.
as §1, with “10” for “20”, “PMA,” for “exendin-4,”
as §1, with “10 ng/mL interferon-γ,” for “20 nM of exendin-4,”
as §1, with “10 μM” for “20 nM”, “tetrandrine,” for “exendin-4,”
as §1, with “10 μg/mL hyaluronic acid,” for “20 nM of exendin-4,”
as §1, with “30” for “20”, “substance P,” for “exendin-4,”
as §1, with “10” for “20”, “resveratrol,” for “exendin-4,”
as §1, with “10 μM” for “20 nM”, “lanifibranor,” for “exendin-4,”
(§2) Mesenchymal stem cells and the exendin-4-pretreated mesenchymal stem cells of the Example were each seeded at a density of 3,000 cells/well into 96-well plates containing 100 μL of a culture medium [high glucose DMEM (Gibco, Cat no. 11995-065), 10% fetal bovine serum (HyClone), 1% MEM non-essential amino acids solution (100×) (Gibco, Cat no. 11140-050)] per well and cultured for 24 hours in a CO2 incubator. Then, CCK solution (10 μL/well) was added, and incubation was continued for 4 hours in the CO2 incubator, followed by reading absorbance at a wavelength of 450 nm (420-480 nm) to determine proliferation.
as §2, with “PMA-pretreated” for “exendin-4-pretreated”, “proliferation. […]” for “proliferation.”

[2] = tested on: primary umbilical cord-derived mesenchymal stem cells; assay: Stem cell stemness: colony formation (CFU-F, crystal violet) after pretreatment; settings: for colonies formed (each 50 or more cells): 1,000 cells/dish, 21 days, non-treated 28.6; for CFU-F increase: vs non-treated
Experimental: as §1
as §1, with “10” for “20”, “PMA,” for “exendin-4,”
as §1, with “10 ng/mL interferon-γ,” for “20 nM of exendin-4,”
as §1, with “10 μM” for “20 nM”, “tetrandrine,” for “exendin-4,”
as §1, with “10 μg/mL hyaluronic acid,” for “20 nM of exendin-4,”
as §1, with “30” for “20”, “substance P,” for “exendin-4,”
as §1, with “10” for “20”, “resveratrol,” for “exendin-4,”
as §1, with “10 μM” for “20 nM”, “lanifibranor,” for “exendin-4,”
Mesenchymal stem cells and the exendin-4-pretreated mesenchymal stem cells of the Example were each seeded at a density of 1,000 cells/dish into 100-mm cell culture dishes containing […] of a culture medium [high glucose DMEM (Gibco, Cat no. 11995-065), 10% fetal bovine serum (HyClone), 1% MEM non-essential amino acids solution (100×) (Gibco, Cat no. 11140-050)] per dish and cultured for 21 days. The cell-attached dishes were washed twice with PBS, followed by fixation with 95% methanol at room temperature for about 2 min. The fixed cells were washed three times with PBS and stained with 0.5% crystal violet [(sigma, C-3886, USA) […], methanol 100 ml] for 5 min. After water washing and drying at room temperature, colonies, each composed of 50 or more cells, were counted for comparison.
Mesenchymal stem cells and the PMA-pretreated mesenchymal stem cells of the Example were each seeded at a density of 1,000 cells/dish into 100-mm cell culture dishes containing […] of a culture medium [high glucose DMEM (Gibco, Cat no. 11995-065), 10% fetal bovine serum (HyClone), 1% MEM non-essential amino acids solution (100×) (Gibco, Cat no. 11140-050)] per dish and cultured for 21 days. The cell-attached dishes were washed twice with PBS, followed by fixation with 95% methanol at room temperature for about 2 min. […]

[3] = tested on: primary umbilical cord-derived mesenchymal stem cells; assay: Number of exosomes by nanoparticle tracking assay (NanoSight NS300); settings: for No. of exosome particles, yield per 10^6 cells: then 72 h exosome-free FBS medium, non-treated 2.3
Experimental: as §1
(§3) After completion of culturing, the mesenchymal stem cells pretreated with exendin-4 were washed and additionally cultured for 72 hours in a culture medium supplemented with 10% fetal bovine serum (FBS) free of exosomes. The reason of employing exosome-free FBS was to prevent FBS-derived exosomes other than those secreted from the cells from being incorporated because generally used FBS contained a large amount of exosomes derived from bovine serum.
(§4) After 72 hours of culturing, the culture medium in which the pretreated mesenchymal stem cells were cultured was taken and centrifuged at 300×g for 10 min to remove residual cells and cell debris. The supernatant was filtered through a 0.22 μm filter, followed by centrifugation at 10,000×g and 4° C. for 70 min in a high-speed centrifuge. The supernatant thus obtained was subjected again to ultracentrifugation at 100,000×g and 4° C. for 90 min. The exosomes obtained as a pellet were diluted in PBS (phosphate buffered saline) before use in the following experiments.
as §1, with “10” for “20”, “PMA,” for “exendin-4,”
as §3, with “PMA” for “exendin-4”
as §1, with “10 ng/mL interferon-γ,” for “20 nM of exendin-4,”
as §3, with “interferon-γ” for “exendin-4”
as §1, with “10 μM” for “20 nM”, “tetrandrine,” for “exendin-4,”
as §3, with “tetrandrine” for “exendin-4”, “serum. […]” for “serum.”

[4] = tested on: primary umbilical cord-derived mesenchymal stem cells; assay: Content of exosomal protein (Bradford analysis, 595 nm); settings: for Exosomal protein, yield per 10^6 cells: then 72 h exosome-free FBS medium, non-treated 2.0
Experimental: as §1, §3, §4
as §1, with “10” for “20”, “PMA,” for “exendin-4,”
as §3, with “PMA” for “exendin-4”
as §1, with “10 ng/mL interferon-γ,” for “20 nM of exendin-4,”
as §3, with “interferon-γ” for “exendin-4”
as §1, with “10 μM” for “20 nM”, “tetrandrine,” for “exendin-4,”
as §3, with “tetrandrine” for “exendin-4”, “serum. […]” for “serum.”

[5] = tested on: primary umbilical cord-derived mesenchymal stem cells; assay: Content of exosomal RNA (NanoDrop); settings: for Exosomal RNA, yield per 10^6 cells: then 72 h exosome-free FBS medium, non-treated 31.0
Experimental: as §1, §3, §4
as §1, with “10” for “20”, “PMA,” for “exendin-4,”
as §3, with “PMA” for “exendin-4”
as §1, with “10 ng/mL interferon-γ,” for “20 nM of exendin-4,”
as §3, with “interferon-γ” for “exendin-4”
as §1, with “10 μM” for “20 nM”, “tetrandrine,” for “exendin-4,”
as §3, with “tetrandrine” for “exendin-4”, “serum. […]” for “serum.”

[6] = 10 nM PMA pretreatment one week
[7] = 10 nM resveratrol pretreatment one week

Row | SMILES | increase in proliferation relative to non-treated mesenchymal stem cells [1, 6] | proliferation ratio relative to non-treated mesenchymal stem cells (1) [1, 6] | colonies formed (each 50 or more cells) [2, 6] [colonies] | CFU-F increase [2, 6] | fold more exosomes than non-treated mesenchymal stem cells [3, 6] | No. of exosome particles, yield per 10^6 cells [3, 6] | fold greater exosomal proteins than non-treated mesenchymal stem cells [4, 6] | Exosomal protein, yield per 10^6 cells [4, 6] [ug] | fold greater exosomal RNA than non-treated mesenchymal stem cells [5, 6] | Exosomal RNA, yield per 10^6 cells [5, 6] [ng] | increase in proliferation relative to non-treated mesenchymal stem cells [1, 7] | proliferation ratio relative to non-treated mesenchymal stem cells (1) [1, 7] | colonies formed (each 50 or more cells) [2, 7] [colonies] | CFU-F increase [2, 7] | fold more exosomes than non-treated mesenchymal stem cells [3, 7] | No. of exosome particles, yield per 10^6 cells [3, 7] | fold greater exosomal proteins than non-treated mesenchymal stem cells [4, 7] | Exosomal protein, yield per 10^6 cells [4, 7] [ug] | fold greater exosomal RNA than non-treated mesenchymal stem cells [5, 7] | Exosomal RNA, yield per 10^6 cells [5, 7] [ng]
1 | CCCCCCCCCCCCCC(=O)O[C@@H]1[C@@H](C)[C@@]2(O)[C@@H](C=C(CO)C[C@]3(O)C(=O)C(C)=C[C@@H]23)[C@@H]2C(C)(C)[C@]12OC(C)=O [PMA, phorbol 12-myristate 13-acetate] | about 220% | 2.2 | 285.7 | about 996.5% | about 5.2 fold | 11.90 10^9 | about 5 fold | 10.0 | about 4 fold | 125.0 |  |  |  |  |  |  |  |  |  | 
2 | Oc1ccc(C=Cc2cc(O)cc(O)c2)cc1 [resveratrol] |  |  |  |  |  |  |  |  |  |  | about 322% | 3.22 | 311 | about 1,087% | about 5.2 fold | 11.9 10^9 | about 5.4 fold | 10.78 | about 4.7 fold | 145.15

— patent US20220195384A1, “COMPOSITION FOR PROMOTING PRODUCTION OF STEM CELL-DERIVED EXOSOMES AND INCREASING STEMNESS” (BREXOGEN INC., priority 2019, published 2022)
